Where two headings read alike, the source gives them in different places.
Columns and labels:
C. difficile ATCC 43598 = test: MIC and MBC, broth microdilution; type: cell-based, Clostridium difficile; settings: Clostridioides difficile, ATCC43598, C. difficile ATCC 43598; for MBC: read-out: MBC; for MIC: read-out: MIC
Method: (§1) MIC50 and MIC90 are the minimum concentration of each agent that inhibited growth of 50% and 90% of the tested isolates, respectively. The minimum bactericidal concentration (MBC) of these drugs was tested by plating 5 μL from wells with no growth onto BHIS agar plates. The MBC was categorized as the lowest concentration that reduced bacterial growth by 99.9% MIC50 and MIC90 are the minimum concentration of each agent that inhibited the growth of 50% and 90% of the tested isolates, respectively. The minimum bactericidal concentration (MBC) of these drugs was tested by plating 5 μL from wells with no growth onto BHIS agar plates. The MBC was categorized as the lowest concentration that reduced bacterial growth by 99.9% [29-31].

C. difficile ATCC 9689 = test: MIC and MBC, broth microdilution; type: cell-based, Clostridium difficile; settings: Clostridioides difficile, ATCC9689, C. difficile ATCC 9689; for MBC: read-out: MBC; for MIC: read-out: MIC
Method: as §1

C. difficile HM-89 = test: MIC and MBC, broth microdilution; type: cell-based, Clostridium difficile; settings: Clostridioides difficile, HM89, C. difficile HM-89; for MBC: read-out: MBC; for MIC: read-out: MIC
Method: as §1

C. difficile I1 = test: MIC and MBC, broth microdilution; type: cell-based, Clostridium difficile; settings: Clostridioides difficile, C. difficile I1; for MBC: read-out: MBC; for MIC: read-out: MIC
Method: as §1

C. difficile I4 = test: MIC and MBC, broth microdilution; type: cell-based, Clostridium difficile; settings: Clostridioides difficile, C. difficile I4; for MBC: read-out: MBC; for MIC: read-out: MIC
Method: as §1

C. difficile NR-49277 = test: MIC and MBC, broth microdilution; type: cell-based, Clostridium difficile; settings: Clostridioides difficile, NR49277, C. difficile NR-49277; for MBC: read-out: MBC; for MIC: read-out: MIC
Method: as §1

C. difficile NR-49281 = test: MIC and MBC, broth microdilution; type: cell-based, Clostridium difficile; settings: Clostridioides difficile, NR49281, C. difficile NR-49281; for MBC: read-out: MBC; for MIC: read-out: MIC
Method: as §1

C. difficile NR-49284 = test: MIC and MBC, broth microdilution; type: cell-based, Clostridium difficile; settings: Clostridioides difficile, NR49284, C. difficile NR-49284; for MBC: read-out: MBC; for MIC: read-out: MIC
Method: as §1

C. difficile P24 = test: MIC and MBC, broth microdilution; type: cell-based, Clostridium difficile; settings: Clostridioides difficile, C. difficile P24; for MBC: read-out: MBC; for MIC: read-out: MIC
Method: as §1

C. difficile P8 = test: MIC and MBC, broth microdilution; type: cell-based, Clostridium difficile; settings: Clostridioides difficile, C. difficile P8; for MBC: read-out: MBC; for MIC: read-out: MIC
Method: as §1

[1] = system: 38 tested C. difficile strains; test: MIC and MBC over the panel of clinical isolates (MIC50, MIC90, range); type: cell-based, Clostridium difficile; settings: for MIC50 / MIC90: Clostridioides difficile; for MIC50: concentration inhibiting growth of 50% of the tested isolates, read-out: MIC50; for MIC90: concentration inhibiting growth of 90% of the tested isolates, read-out: MIC90
Method: as §1

Bacteroides dorei HM-29 = test: MIC against normal gut microflora, broth microdilution; type: cell-based; settings: Phocaeicola dorei, HM29; Bacteroides dorei HM-29; read-out: MIC
Method: (§2) In vitro antimicrobial evaluation of diiodohydroxyquinoline against normal microflora. The broth microdilution assay was utilized to determine the MICs of DIHQ and control antibiotics against commensal organisms that compose he human gut microflora, as described elsewhere. A bacterial solution equivalent to 0.5 McFarland standard was prepared and diluted in BHIS broth (for Bifidobacterium and Bacteroides) or in MRS broth (for Lactobacillus) to achieve a bacterial concentration of about 5×10^5 CFU/mL. Then, drugs were added and serially diluted along the plates.

Bacteroides dorei HM-717 = test: as above; type: cell-based; settings: Phocaeicola dorei, HM717; Bacteroides dorei HM-717; read-out: MIC
Method: as §2

Bacteroides dorei HM-718 = test: as above; type: cell-based; settings: Phocaeicola dorei, HM718; Bacteroides dorei HM-718; read-out: MIC
Method: as §2

Bacteroides dorei HM-719 = test: as above; type: cell-based; settings: Phocaeicola dorei, HM719; Bacteroides dorei HM-719; read-out: MIC
Method: as §2

[2] = system: Bacteroides fragilis HM-709; test: as above; type: cell-based; settings: HM709; Bacteroides fragilis HM-709; read-out: MIC
Method: as §2

[3] = system: Bacteroides fragilis HM-710; test: as above; type: cell-based; settings: HM710; Bacteroides fragilis HM-710; read-out: MIC
Method: as §2

[4] = system: Bacteroides fragilis HM-711; test: as above; type: cell-based; settings: HM711; Bacteroides fragilis HM-711; read-out: MIC
Method: as §2

[5] = system: Bacteroides fragilis HM-714; test: as above; type: cell-based; settings: HM714; Bacteroides fragilis HM-714; read-out: MIC
Method: as §2

[6] = system: Bifidobacterium adolescentis HM-633; test: as above; type: cell-based; settings: HM633; Bifidobacterium adolescentis HM-633; read-out: MIC
Method: as §2

[7] = system: Bifidobacterium angulatum HM-1189; test: as above; type: cell-based; settings: HM1189; Bifidobacterium angulatum HM-1189; read-out: MIC
Method: as §2

[8] = system: Bifidobacterium breve HM-1120; test: as above; type: cell-based; settings: HM1120; Bifidobacterium breve HM-1120; read-out: MIC
Method: as §2

[9] = system: Bifidobacterium breve HM-411; test: as above; type: cell-based; settings: HM411; Bifidobacterium breve HM-411; read-out: MIC
Method: as §2

[10] = system: Bifidobacterium longum HM-845; test: as above; type: cell-based; settings: HM845; Bifidobacterium longum HM-845; read-out: MIC
Method: as §2

[11] = system: Bifidobacterium longum HM-847; test: as above; type: cell-based; settings: HM847; Bifidobacterium longum HM-847; read-out: MIC
Method: as §2

[12] = system: Lactobacillus casei ATCC 334; test: as above; type: cell-based; settings: Lacticaseibacillus casei, ATCC334; Lactobacillus casei ATCC 334; read-out: MIC
Method: as §2

[13] = system: Lactobacillus crispatus HM-371; test: as above; type: cell-based; settings: HM371; Lactobacillus crispatus HM-371; read-out: MIC
Method: as §2

[14] = system: Lactobacillus reuteri HM-102; test: as above; type: cell-based; settings: Lactobacillus reuteri HM-102
Method: as §2

C. difficile ATCC 43255 = test: Initial screening of antiparasitic drugs, broth microdilution MIC; type: cell-based, Clostridium difficile; settings: Clostridioides difficile, ATCC43255; initial screening, C. difficile ATCC 43255; read-out: MIC
Method: C. difficile strains were grown anaerobically on brain heart infusion supplemented (BHIS) agar plates at 37° C. for 48 hours. Afterwards, a bacterial solution equivalent to 0.5 McFarland standard was prepared and diluted in (BHIS) broth to achieve a bacterial concentration of about 5×10^5 CFU/mL. Drugs were added and serially diluted along the plates. Plates were then, incubated anaerobically at 37° C. for 48 hours. MICs reported in Table (1) are the minimum concentrations of the drugs that could completely suppress the visual growth of bacteria.

[15] = Limosilactobacillus reuteri, HM102, read-out: MIC

CCc1c(Cl)c(O)c(Cl)c(O)c1C(=O)O[C@H]1[C@H](O)[C@H](OC)[C@H](OC/C2=C\C=C\C[C@H](O)/C(C)=C/[C@H](CC)[C@@H](O[C@@H]3OC(C)(C)[C@@H](OC(=O)C(C)C)[C@H](O)[C@@H]3O)/C(C)=C/C(C)=C/C[C@@H]([C@@H](C)O)OC2=O)O[C@@H]1C [Fidaxomicin, fidaxomicin]
128 µg/mL: MIC (Bacteroides dorei HM-719)
0.015 µg/mL: MBC (C. difficile ATCC 43598) | MIC (C. difficile ATCC 43598) | MBC (C. difficile I4) | MIC (C. difficile I4) | MBC (C. difficile NR-49284) | MIC (C. difficile NR-49284) | MIC (C. difficile P24) | MBC (C. difficile P8) | MIC (C. difficile P8) | MIC50 [1]
0.03 µg/mL: MBC (C. difficile ATCC 9689) | MIC (C. difficile ATCC 9689) | MBC (C. difficile HM-89) | MIC (C. difficile HM-89) | MBC (C. difficile NR-49277) | MIC (C. difficile NR-49277) | MBC (C. difficile P24)
2 µg/mL: MIC [9]
> 128 µg/mL: MIC (Bacteroides dorei HM-29) | MIC (Bacteroides dorei HM-717) | MIC (Bacteroides dorei HM-718) | MIC [2] | MIC [3] | MIC [4] | MIC [5] | MIC [12] | MIC [13] | MIC [14, 15]
0.06 µg/mL: MIC90 [1]
0.007 µg/mL: MBC (C. difficile I1) | MIC (C. difficile I1) | MBC (C. difficile NR-49281) | MIC (C. difficile NR-49281)
≤ 1 µg/mL: MIC [6] | MIC [7] | MIC [8] | MIC [10] | MIC [11]

Oc1c(I)cc(I)c2cccnc12 [DIHQ, 5,7-diiodoquinolin-8-ol]
> 128 µg/mL: MIC (Bacteroides dorei HM-29) | MIC (Bacteroides dorei HM-717) | MIC (Bacteroides dorei HM-718) | MIC (Bacteroides dorei HM-719) | MIC [2] | MIC [3] | MIC [4] | MIC [5] | MIC [8] | MIC [9] | MIC [14, 15]
0.125 µg/mL: MIC (C. difficile ATCC 9689) | MBC (C. difficile NR-49284) | MIC (C. difficile NR-49284) | MBC (C. difficile P8) | MIC (C. difficile P8)
2 µg/mL: MBC (C. difficile P24) | MIC90 [1]
>128 µg/mL: MIC [14]
128 µg/mL: MIC [6] | MIC [7] | MIC [11]
1 µg/mL: MBC (C. difficile ATCC 43598) | MIC (C. difficile ATCC 43598) | MBC (C. difficile HM-89) | MIC (C. difficile HM-89) | MBC (C. difficile I1) | MIC (C. difficile I1) | MBC (C. difficile I4) | MIC (C. difficile I4) | MIC (C. difficile P24)
0.5 µg/mL: MIC (C. difficile ATCC 43255) | MBC (C. difficile NR-49277) | MIC (C. difficile NR-49277) | MIC50 [1]
16 µg/mL: MIC [12]
0.06 to 2 µg/mL: MIC range ([1]; over the 38 tested C. difficile strains)
0.25 µg/mL: MBC (C. difficile ATCC 9689) | MBC (C. difficile NR-49281) | MIC (C. difficile NR-49281)
equal to or two-fold higher: MBC values relative to the corresponding MIC values ([1]; all isolates)
64 µg/mL: MIC [10] | MIC [13]

Reference: patent US11806342B2, “Diiodohydroxyquinoline for the treatment of clostridium difficile infection” (Purdue Research Foundation, priority 2019, dated 2023)
